# From US7566712B2, “Biaryl piperazinyl-pyridine analogues” (Neurogen Corporation, priority 2003, dated 2009)
# Target: T1, human capsaicin receptor (Homo sapiens, UniProt Q8NER1)
# T1 construct: pBK-CMV expression construct encoding the full length human capsaicin receptor; expressed in transfected cells
# Assay: Calcium mobilization assay, determination of antagonist activity (Example 6)
# Assay type: cell-based
# Settings: Table II; IC50 determined as described in Example 6
# Description: A cDNA encoding full length human capsaicin receptor (SEQ ID NO: 1, 2 or 3 of U.S. Pat. No. 6,482,611) was subcloned in the plasmid pBK-CMV (Stratagene, La Jolla, Calif.) for recombinant expression in mammalian cells.
# Human embryonic kidney (HEK293) cells were transfected with the pBK-CMV expression construct encoding the full length human capsaicin receptor using standard methods. The transfected cells were selected for two weeks in media containing G418 (400 μg/ml) to obtain a pool of stably transfected cells. Independent clones were isolated from this pool by limiting dilution to obtain clonal stable cell lines for use in subsequent experiments.
# This Example illustrates representative calcium mobilization assays for use in evaluating test compounds for agonist and antagonist activity.
# Cells transfected with expression plasmids (as described in Example 4) and thereby expressing human capsaicin receptor are seeded and grown to 70-90% confluency in FALCON black-walled, clear-bottomed 96-well plates (#3904, BECTON-DICKINSON, Franklin Lakes, N.J.). The culture medium is emptied from the 96 well plates and FLUO-3 AM calcium sensitive dye (Molecular Probes, Eugene, Oreg.) is added to each well (dye solution: 1 mg FLUO-3 AM, 440 μL DMSO and 440 pi 20% pluronic acid in DMSO, diluted 1:250 in Krebs-Ringer HEPES (KRH) buffer (25 mM HEPES, 5 mM KCl, 0.96 mM NaH2PO4, 1 mM MgSO4, 2 mM CaCl2, 5 mM glucose, 1 mM probenecid, pH 7.4), 50 μl diluted solution per well). Plates are covered with aluminum foil and incubated at 37° C. for 1-2 hours in an environment containing 5% CO2. After the incubation, the dye is emptied from the plates, and the cells are washed once with KRH buffer, and resuspended in KRH buffer.
# To measure the ability of a test compound to agonize or antagonize a calcium mobilization response in cells expressing capsaicin receptors to capsaicin or other vanilloid agonist, the EC50 of the agonist capsaicin is first determined. An additional 20 μl of KRH buffer and 1 μl DMSO is added to each well of cells, prepared as described above. 100 μl capsaicin in KRH buffer is automatically transferred by the FLIPR instrument to each well. Capsaicin-induced calcium mobilization is monitored using either FLUOROSKAN ASCENT (Labsystems; Franklin, Mass.) or FLIPR (fluorometric imaging plate reader system; Molecular Devices, Sunnyvale, Calif.) instruments. Data obtained between 30 and 60 seconds after agonist application are used to generate an 8-point concentration response curve, with final capsaicin concentrations of 1 nM to 3 μM. KALEIDAGRAPH software (Synergy Software, Reading, Pa.) is used to fit the data to the equation: y=a*(1/(1+(b/x)^c)) to determine the 50% excitatory concentration (EC50) for the response. In this equation, y is the maximum fluorescence signal, x is the concentration of the agonist or antagonist (in this case, capsaicin), a is the Emax, b corresponds to the EC50 value and c is the Hill coefficient. Determination of Agonist Activity
# Test compounds are dissolved in DMSO, diluted in 20 μl KRH buffer so that the final concentration of test compounds in the assay well is between 1 μM and 5 μM, and added to cells prepared as described above. The 96 well plates containing prepared cells and test compounds are incubated in the dark, at room temperature for 0.5 to 6 hours. It is important that the incubation not continue beyond 6 hours. Just prior to determining the fluorescence response, 100 pi capsaicin in KRH buffer at twice the EC50 concentration determined as described above is automatically added by the FLIPR instrument to each well of the 96 well plate for a final sample volume of 200 μl and a final capsaicin concentration equal to the EC50. The final concentration of test compounds in the assay wells is between 1 μM and 5 μM. […]
# T1 sequence (Q8NER1 whole entry): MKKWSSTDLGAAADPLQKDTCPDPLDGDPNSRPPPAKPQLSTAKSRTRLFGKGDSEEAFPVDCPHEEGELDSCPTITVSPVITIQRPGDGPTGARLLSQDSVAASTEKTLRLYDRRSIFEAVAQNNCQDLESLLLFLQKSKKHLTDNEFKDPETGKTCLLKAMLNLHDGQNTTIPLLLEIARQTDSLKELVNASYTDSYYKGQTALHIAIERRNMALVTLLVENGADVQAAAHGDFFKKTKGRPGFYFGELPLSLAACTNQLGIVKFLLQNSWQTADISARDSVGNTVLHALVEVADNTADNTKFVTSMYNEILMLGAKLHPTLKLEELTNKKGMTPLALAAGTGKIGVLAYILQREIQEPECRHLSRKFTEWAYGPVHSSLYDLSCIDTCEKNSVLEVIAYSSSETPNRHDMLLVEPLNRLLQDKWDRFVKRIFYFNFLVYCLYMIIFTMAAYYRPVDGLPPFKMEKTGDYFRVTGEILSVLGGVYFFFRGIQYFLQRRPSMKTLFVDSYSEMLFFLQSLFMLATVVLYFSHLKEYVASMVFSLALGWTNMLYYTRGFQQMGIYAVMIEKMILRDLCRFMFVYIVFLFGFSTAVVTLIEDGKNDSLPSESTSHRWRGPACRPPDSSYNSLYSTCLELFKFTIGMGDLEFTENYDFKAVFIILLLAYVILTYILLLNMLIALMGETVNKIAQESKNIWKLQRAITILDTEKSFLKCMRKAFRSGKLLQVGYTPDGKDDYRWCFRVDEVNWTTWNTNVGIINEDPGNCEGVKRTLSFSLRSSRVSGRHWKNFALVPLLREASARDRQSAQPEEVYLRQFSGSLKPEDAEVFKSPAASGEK
row,IC50 [nM],SMILES
1,≤ 1000,"Fc1ccc(F)c(-c2nc(N3CCOCC3)nc(N3CCN(c4ccccn4)CC3)n2)c1 [Example 422, 2-(2,5-difluorophenyl)-4-morpholin-4-yl-6-(4-pyridin-2-ylpiperazin-1-yl)-1,3,5-triazine]"
2,≤ 1000,"Fc1ccc(-c2nc(N3CCOCC3)nc(N3CCN(c4ccccn4)CC3)n2)c(F)c1 [Example 423, 2-(2,4-difluorophenyl)-4-morpholin-4-yl-6-(4-pyridin-2-ylpiperazin-1-yl)-1,3,5-triazine]"
3,≤ 1000,"Fc1ccc(-c2nc(N3CCOCC3)nc(N3CCN(c4ccccn4)CC3)n2)cc1F [Example 424, 2-(3,4-difluorophenyl)-4-morpholin-4-yl-6-(4-pyridin-2-ylpiperazin-1-yl)-1,3,5-triazine]"

# Same assay, conditions: Table II; determined as described in Example 6; class symbol
row,IC50 [nM],SMILES
1,≤ 1000,"Cc1ccccc1-c1nc(N2CCOCC2)nc(N2CCN(c3ccccn3)CC2)n1 [Example 268, 2-(2-methylphenyl)-4-morpholin-4-yl-6-(4-pyridin-2-ylpiperazin-1-yl)-1,3,5-triazine]"
2,≤ 1000,"Cc1ccc(C)c(-c2nc(N3CCOCC3)nc(N3CCN(c4ccccn4)CC3)n2)c1 [Example 269, 2-(2,5-dimethylphenyl)-4-morpholin-4-yl-6-(4-pyridin-2-ylpiperazin-1-yl)-1,3,5-triazine]"
3,≤ 1000,"c1ccc(N2CCN(c3nc(-c4cccc5ccccc45)nc(N4CCOCC4)n3)CC2)nc1 [Example 270, 2-morpholin-4-yl-4-(1-naphthyl)-6-(4-pyridin-2-ylpiperazin-1-yl)-1,3,5-triazine]"
4,≤ 1000,"Cc1cccc(-c2nc(N3CCOCC3)nc(N3CCN(c4ccccn4)CC3)n2)c1C [Example 271, 2-(2,3-dimethylphenyl)-4-morpholin-4-yl-6-(4-pyridin-2-ylpiperazin-1-yl)-1,3,5-triazine]"
5,≤ 1000,"Cc1ccc(F)cc1-c1nc(N2CCOCC2)nc(N2CCN(c3ccccn3)CC2)n1 [Example 272, 2-(5-fluoro-2-methylphenyl)-4-morpholin-4-yl-6-(4-pyridin-2-ylpiperazin-1-yl)-1,3,5-triazine]"
6,≤ 1000,"Cc1cc(F)ccc1-c1nc(N2CCOCC2)nc(N2CCN(c3ccccn3)CC2)n1 [Example 273, 2-(4-fluoro-2-methylphenyl)-4-morpholin-4-yl-6-(4-pyridin-2-ylpiperazin-1-yl)-1,3,5-triazine]"
7,≤ 1000,"CCc1ccccc1-c1nc(N2CCOCC2)nc(N2CCN(c3ccccn3)CC2)n1 [Example 274, 2-(2-ethylphenyl)-4-morpholin-4-yl-6-(4-pyridin-2-ylpiperazin-1-yl)-1,3,5-triazine]"
8,≤ 1000,"Cc1ccc(-c2nc(N3CCOCC3)nc(N3CCN(c4ccccn4)CC3)n2)c2ccccc12 [Example 276, 2-(4-methyl-1-naphthyl)-4-morpholin-4-yl-6-(4-pyridin-2-ylpiperazin-1-yl)-1,3,5-triazine]"

# Continued, compound first:
row,SMILES,IC50 [nM]
1,"Cc1cccc(-c2nc(N3CCCCCC3)nc(N3CCN(c4ncccc4C(F)(F)F)CC3)n2)c1 [Example 262, 1-(4-(3-methylphenyl)-6-{4-[3-(trifluoromethyl)pyridin-2-yl]piperazin-1-yl}-1,3,5-triazin-2-yl)azepane]",≤ 1000
2,"Cc1cccc(-c2nc(N3CCN(c4ncccc4C(F)(F)F)CC3)nc(N3CC(C)OC(C)C3)n2)c1 (stereo not drawn) [Example 263, 2-(2,6-dimethylmorpholin-4-yl)-4-(3-methylphenyl)-6-{4-[3-(trifluoromethyl)pyridin-2-yl]piperazin-1-yl}-1,3,5-triazine]",≤ 1000
3,"Fc1ccc(-c2nc(N3CCCCCC3)nc(N3CCN(c4ncccc4C(F)(F)F)CC3)n2)cc1Cl [Example 265, 1-(4-(3-chloro-4-fluorophenyi)-6-{4-[3-(trifluoromethyl)pyridin-2-yl]piperazin-1-yl}-1,3,5-triazin-2-yl)azepane]",≤ 1000
4,"CC1CN(c2nc(-c3ccc(F)c(Cl)c3)nc(N3CCN(c4ncccc4C(F)(F)F)CC3)n2)CC(C)O1 (stereo not drawn) [Example 266, 2-(3-chloro-4-fluorophenyl)-4-(2,6-dimethylmorpholin-4-yl)-6-{4-[3-(trifluoromethyl)pyridin-2-yl]piperazin-1-yl}-1,3,5-triazine]",≤ 1000
